Experimental data reported in ChEMBL document CHEMBL4371009, “Polypharmacology by Design: A Medicinal Chemist's Perspective on Multitargeting Compounds” (J Med Chem, 2019).

Key:
D(4) dopamine receptor = target: T1, D(4) dopamine receptor (Homo sapiens, UniProt P21917); assay: Displacement of [3H]-N-methylspiperone from dopamine D4 receptor (unknown origin) expressed in HEK293 cell membranes
T1 sequence (P21917 whole entry): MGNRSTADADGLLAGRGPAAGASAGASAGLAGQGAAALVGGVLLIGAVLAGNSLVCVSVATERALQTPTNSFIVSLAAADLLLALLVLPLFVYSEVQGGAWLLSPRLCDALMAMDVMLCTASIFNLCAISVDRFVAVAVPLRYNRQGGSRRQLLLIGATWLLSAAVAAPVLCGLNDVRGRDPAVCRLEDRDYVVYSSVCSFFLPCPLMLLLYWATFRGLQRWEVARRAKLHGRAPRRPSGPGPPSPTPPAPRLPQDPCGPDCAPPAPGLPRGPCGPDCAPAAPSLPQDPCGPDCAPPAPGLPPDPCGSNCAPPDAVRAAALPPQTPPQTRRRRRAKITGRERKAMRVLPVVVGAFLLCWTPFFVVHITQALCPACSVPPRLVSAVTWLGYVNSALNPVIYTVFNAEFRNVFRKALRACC

D(3) dopamine receptor = D(3) dopamine receptor (Homo sapiens, UniProt P35462); assay: Displacement of [3H]-N-methylspiperone from dopamine D3 receptor (unknown origin) expressed in HEK293 cell membranes
Chain of D(3) dopamine receptor (P35462 whole entry): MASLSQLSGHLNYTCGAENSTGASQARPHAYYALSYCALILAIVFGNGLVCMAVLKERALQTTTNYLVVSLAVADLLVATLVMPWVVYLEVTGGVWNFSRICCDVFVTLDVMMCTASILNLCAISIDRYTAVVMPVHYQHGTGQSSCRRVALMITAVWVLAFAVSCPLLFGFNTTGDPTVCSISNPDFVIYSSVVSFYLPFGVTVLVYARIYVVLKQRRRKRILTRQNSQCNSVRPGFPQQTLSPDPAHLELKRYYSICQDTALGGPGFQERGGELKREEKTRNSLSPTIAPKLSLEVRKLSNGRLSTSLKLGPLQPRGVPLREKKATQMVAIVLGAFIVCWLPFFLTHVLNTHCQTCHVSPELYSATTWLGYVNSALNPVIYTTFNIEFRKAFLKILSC

[1] = target: T2, 5-hydroxytryptamine receptor 1A (Homo sapiens, UniProt P08908); assay: Displacement of [3H]-Way100635 from 5HT1A (unknown origin) expressed in CHO cell membranes
T2 sequence (P08908 whole entry): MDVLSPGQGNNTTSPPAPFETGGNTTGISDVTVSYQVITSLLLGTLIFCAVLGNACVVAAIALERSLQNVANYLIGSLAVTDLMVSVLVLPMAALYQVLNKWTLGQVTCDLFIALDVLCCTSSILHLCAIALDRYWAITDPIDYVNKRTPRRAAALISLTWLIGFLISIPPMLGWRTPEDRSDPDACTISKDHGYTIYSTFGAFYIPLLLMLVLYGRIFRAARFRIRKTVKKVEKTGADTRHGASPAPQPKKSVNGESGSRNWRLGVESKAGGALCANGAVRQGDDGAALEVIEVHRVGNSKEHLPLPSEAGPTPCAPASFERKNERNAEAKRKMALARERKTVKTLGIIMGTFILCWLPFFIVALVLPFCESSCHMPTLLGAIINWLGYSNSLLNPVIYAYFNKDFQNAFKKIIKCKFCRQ

Question: Which Ki (D(4) dopamine receptor) does the source give for COc1cc2c(cc1OC)C(=O)N(CCCCN1CCN(c3ccccn3)CC1)CCC2 here?
Answer: 6.5 nM

Question: And the Ki (D(3) dopamine receptor)?
Answer: 3 nM

Question: And the Ki [1]?
Answer: 1.2 nM
